Test results published in patent US3941842A, “P,P'-Disubstituted α-trichloromethylbenzylanilines” (priority 1972, dated 1976).

Tested on: Phormia regina
Test: whole plant or invertebrate
Conditions: Phormia regina, topical, read-out: Topical LD50, Phormia regina, Alone
Method: The compounds of the present invention were tested for insecticidal activity by standard methods, and compared with the insecticidal activities of DDT and symmetrical analogs of DDT, such methoxychlor. Toxicological methods for the determination of the topical LD50 values to adult female SNAIDM and RSP houseflies, Musca domestica L. and to Phormia regina, and LC50 values to Culex pipiens quinquefasciatus Say, and Anopheles albimanus Weid mosquitoes were described by Metcalf el al., 44 Bull. World Health Org. […] The methods for evaluation of metabolism by mouse liver homogenate and by female RSP housefly and salt-marsh caterpillar larvae Estigmene acrea Drury, were described by Kapoor et al., 18 J. Agr. […] The techniques for model eocsystem evluation were described by Metcalf et al., 5 J. Environ. Sci. Tech.
(§1) Since piperonyl butoxide serves to block the action of MFO, the synergized LD50 values express the intrinsic toxicity of the compounds. With the detoxifying action of MFO enzymes blocked, the intrinsic toxicity of the compounds can thus be measured.

Row | Structure (SMILES) | LD50 [mg/kg]
1 | CCOc1ccc(NC(c2ccc(C)cc2)C(Cl)(Cl)Cl)cc1 (stereo not drawn) [XII] | 95
2 | Cc1ccc(C(Nc2ccc(Cl)cc2)C(Cl)(Cl)Cl)cc1 (stereo not drawn) [Compound XV] | 72.5
3 | COc1ccc(C(Nc2ccc(C)cc2)C(Cl)(Cl)Cl)cc1 (stereo not drawn) [IX] | 16.5
4 | COc1ccc(C(Nc2ccc(Cl)cc2)C(Cl)(Cl)Cl)cc1 (stereo not drawn) [V] | 55
5 | CCOc1ccc(C(Nc2ccc(C)cc2)C(Cl)(Cl)Cl)cc1 (stereo not drawn) [XI, α-trichloromethyl-p-ethoxybenzyl-p-methylaniline] | 7.7

Same assay, conditions: synergistic ratio: LD50 alone/LD50 synergized with piperonyl butoxide

Row | Structure (SMILES) | SR, Phormia regina
6 | CCOc1ccc(NC(c2ccc(C)cc2)C(Cl)(Cl)Cl)cc1 (stereo not drawn) [XII] | 2.2
7 | Cc1ccc(C(Nc2ccc(Cl)cc2)C(Cl)(Cl)Cl)cc1 (stereo not drawn) [Compound XV] | 1.1
8 | COc1ccc(C(Nc2ccc(C)cc2)C(Cl)(Cl)Cl)cc1 (stereo not drawn) [IX] | 1.4
9 | COc1ccc(C(Nc2ccc(Cl)cc2)C(Cl)(Cl)Cl)cc1 (stereo not drawn) [V] | 3.6

Same assay, conditions: synergized with piperonyl butoxide; topical

Row | Structure (SMILES) | Topical LD50, Phormia regina, with pb [μg per g]
10 | CCOc1ccc(NC(c2ccc(C)cc2)C(Cl)(Cl)Cl)cc1 (stereo not drawn) [XII] | 42.5
11 | Cc1ccc(C(Nc2ccc(Cl)cc2)C(Cl)(Cl)Cl)cc1 (stereo not drawn) [Compound XV] | 62.5
12 | COc1ccc(C(Nc2ccc(C)cc2)C(Cl)(Cl)Cl)cc1 (stereo not drawn) [IX] | 11.50
13 | COc1ccc(C(Nc2ccc(Cl)cc2)C(Cl)(Cl)Cl)cc1 (stereo not drawn) [V] | 15.2
14 | CCOc1ccc(C(Nc2ccc(C)cc2)C(Cl)(Cl)Cl)cc1 (stereo not drawn) [XI, α-trichloromethyl-p-ethoxybenzyl-p-methylaniline] | 4.2

Tested on: Musca domestica Rsp
Test: Topical LD50 to adult female RSP houseflies
Conditions: Musca domestica, topical, read-out: Topical LD50, Musca domestica Rsp, Alone
Method: (§2) The compounds of the present invention were tested for insecticidal activity by standard methods, and compared with the insecticidal activities of DDT and symmetrical analogs of DDT, such methoxychlor. Toxicological methods for the determination of the topical LD50 values to adult female SNAIDM and RSP houseflies, Musca domestica L. and to Phormia regina, and LC50 values to Culex pipiens quinquefasciatus Say, and Anopheles albimanus Weid mosquitoes were described by Metcalf el al., 44 Bull. World Health Org. 363 (1971). The methods for evaluation of metabolism by mouse liver homogenate and by female RSP housefly and salt-marsh caterpillar larvae Estigmene acrea Drury, were described by Kapoor et al., 18 J. Agr. Food Chem. 1145 (1970). The techniques for model eocsystem evluation were described by Metcalf et al., 5 J. Environ. Sci. Tech. 709 (1971).
as §1

Row | Structure (SMILES) | LD50 [mg/kg]
15 | CCOc1ccc(NC(c2ccc(C)cc2)C(Cl)(Cl)Cl)cc1 (stereo not drawn) [XII] | 70
16 | Cc1ccc(C(Nc2ccc(Cl)cc2)C(Cl)(Cl)Cl)cc1 (stereo not drawn) [Compound XV] | ~500
17 | COc1ccc(C(Nc2ccc(C)cc2)C(Cl)(Cl)Cl)cc1 (stereo not drawn) [IX] | 50
18 | COc1ccc(C(Nc2ccc(Cl)cc2)C(Cl)(Cl)Cl)cc1 (stereo not drawn) [V] | 35.5
19 | CCOc1ccc(C(Nc2ccc(C)cc2)C(Cl)(Cl)Cl)cc1 (stereo not drawn) [XI, α-trichloromethyl-p-ethoxybenzyl-p-methylaniline] | 14

Same assay, conditions: RSP strain; synergized with piperonyl butoxide; topical

Row | Structure (SMILES) | Topical LD50, Musca domestica Rsp, with pb [μg per g]
20 | CCOc1ccc(NC(c2ccc(C)cc2)C(Cl)(Cl)Cl)cc1 (stereo not drawn) [XII] | 19.5
21 | Cc1ccc(C(Nc2ccc(Cl)cc2)C(Cl)(Cl)Cl)cc1 (stereo not drawn) [Compound XV] | 36.0
22 | COc1ccc(C(Nc2ccc(C)cc2)C(Cl)(Cl)Cl)cc1 (stereo not drawn) [IX] | 12.0
23 | COc1ccc(C(Nc2ccc(Cl)cc2)C(Cl)(Cl)Cl)cc1 (stereo not drawn) [V] | 12.0
24 | CCOc1ccc(C(Nc2ccc(C)cc2)C(Cl)(Cl)Cl)cc1 (stereo not drawn) [XI, α-trichloromethyl-p-ethoxybenzyl-p-methylaniline] | 4.4

Same assay, conditions: synergistic ratio: LD50 alone/LD50 synergized with piperonyl butoxide

Row | Structure (SMILES) | SR, Musca domestica Rsp
25 | CCOc1ccc(NC(c2ccc(C)cc2)C(Cl)(Cl)Cl)cc1 (stereo not drawn) [XII] | 3.6
26 | Cc1ccc(C(Nc2ccc(Cl)cc2)C(Cl)(Cl)Cl)cc1 (stereo not drawn) [Compound XV] | 14
27 | COc1ccc(C(Nc2ccc(C)cc2)C(Cl)(Cl)Cl)cc1 (stereo not drawn) [IX] | 4.5
28 | COc1ccc(C(Nc2ccc(Cl)cc2)C(Cl)(Cl)Cl)cc1 (stereo not drawn) [V] | 3.0
29 | CCOc1ccc(C(Nc2ccc(C)cc2)C(Cl)(Cl)Cl)cc1 (stereo not drawn) [XI, α-trichloromethyl-p-ethoxybenzyl-p-methylaniline] | 3.2

Tested on: Culex fatigans larvae
Test: LC50 to Culex fatigans larvae
Type: in vivo, Culex pipiens quinquefasciatus Say
Conditions: not given
Text: (§3) World Health Org. 363 (1971). […] Food Chem. 1145 (1970). […] Sci. Tech. 709 (1971). The results are detailed in Table II. ##SPC1##

Row | Structure (SMILES) | LC50 Culex fatigans larvae [ppm]
30 | CCOc1ccc(NC(c2ccc(C)cc2)C(Cl)(Cl)Cl)cc1 (stereo not drawn) [XII] | 0.33
31 | Cc1ccc(C(Nc2ccc(Cl)cc2)C(Cl)(Cl)Cl)cc1 (stereo not drawn) [Compound XV] | 0.066
32 | COc1ccc(C(Nc2ccc(C)cc2)C(Cl)(Cl)Cl)cc1 (stereo not drawn) [IX] | 0.26
33 | COc1ccc(C(Nc2ccc(Cl)cc2)C(Cl)(Cl)Cl)cc1 (stereo not drawn) [V] | 0.068
34 | CCOc1ccc(C(Nc2ccc(C)cc2)C(Cl)(Cl)Cl)cc1 (stereo not drawn) [XI, α-trichloromethyl-p-ethoxybenzyl-p-methylaniline] | 0.073

Tested on: Musca domestica Snaidm
Test: Topical LD50 to adult female SNAIDM houseflies
Conditions: Musca domestica, topical, read-out: Topical LD50, Musca domestica Snaidm, Alone
Method: as §2, §1

Row | Structure (SMILES) | LD50 [mg/kg]
35 | CCOc1ccc(NC(c2ccc(C)cc2)C(Cl)(Cl)Cl)cc1 (stereo not drawn) [XII] | 35
36 | Cc1ccc(C(Nc2ccc(Cl)cc2)C(Cl)(Cl)Cl)cc1 (stereo not drawn) [Compound XV] | 90
37 | COc1ccc(C(Nc2ccc(C)cc2)C(Cl)(Cl)Cl)cc1 (stereo not drawn) [IX] | 35
38 | COc1ccc(C(Nc2ccc(Cl)cc2)C(Cl)(Cl)Cl)cc1 (stereo not drawn) [V] | 23
39 | CCOc1ccc(C(Nc2ccc(C)cc2)C(Cl)(Cl)Cl)cc1 (stereo not drawn) [XI, α-trichloromethyl-p-ethoxybenzyl-p-methylaniline] | 12.5

Same assay, conditions: SNAIDM strain; synergized with piperonyl butoxide; topical

Row | Structure (SMILES) | Topical LD50, Musca domestica Snaidm, with pb [μg per g]
40 | CCOc1ccc(NC(c2ccc(C)cc2)C(Cl)(Cl)Cl)cc1 (stereo not drawn) [XII] | 14.5
41 | Cc1ccc(C(Nc2ccc(Cl)cc2)C(Cl)(Cl)Cl)cc1 (stereo not drawn) [Compound XV] | 21.0
42 | COc1ccc(C(Nc2ccc(C)cc2)C(Cl)(Cl)Cl)cc1 (stereo not drawn) [IX] | 8.5
43 | COc1ccc(C(Nc2ccc(Cl)cc2)C(Cl)(Cl)Cl)cc1 (stereo not drawn) [V] | 10.5
44 | CCOc1ccc(C(Nc2ccc(C)cc2)C(Cl)(Cl)Cl)cc1 (stereo not drawn) [XI, α-trichloromethyl-p-ethoxybenzyl-p-methylaniline] | 2.5

Same assay, conditions: synergistic ratio: LD50 alone/LD50 synergized with piperonyl butoxide

Row | Structure (SMILES) | SR, Musca domestica Snaidm
45 | CCOc1ccc(NC(c2ccc(C)cc2)C(Cl)(Cl)Cl)cc1 (stereo not drawn) [XII] | 2.4
46 | Cc1ccc(C(Nc2ccc(Cl)cc2)C(Cl)(Cl)Cl)cc1 (stereo not drawn) [Compound XV] | 4.3
47 | COc1ccc(C(Nc2ccc(C)cc2)C(Cl)(Cl)Cl)cc1 (stereo not drawn) [IX] | 4.1
48 | COc1ccc(C(Nc2ccc(Cl)cc2)C(Cl)(Cl)Cl)cc1 (stereo not drawn) [V] | 2.2
49 | CCOc1ccc(C(Nc2ccc(C)cc2)C(Cl)(Cl)Cl)cc1 (stereo not drawn) [XI, α-trichloromethyl-p-ethoxybenzyl-p-methylaniline] | 5.0

Tested on: Anopheles albimanus larvae
Test: LC50 to Anopheles albimanus larvae
Type: in vivo, Anopheles albimanus Weid
Conditions: not given
Text: as §3

Row | Structure (SMILES) | LC50 Anopheles albimanus larvae [ppm]
50 | CCOc1ccc(NC(c2ccc(C)cc2)C(Cl)(Cl)Cl)cc1 (stereo not drawn) [XII] | 0.30
51 | Cc1ccc(C(Nc2ccc(Cl)cc2)C(Cl)(Cl)Cl)cc1 (stereo not drawn) [Compound XV] | 0.13
52 | COc1ccc(C(Nc2ccc(C)cc2)C(Cl)(Cl)Cl)cc1 (stereo not drawn) [IX] | 0.28
53 | COc1ccc(C(Nc2ccc(Cl)cc2)C(Cl)(Cl)Cl)cc1 (stereo not drawn) [V] | 0.12
54 | CCOc1ccc(C(Nc2ccc(C)cc2)C(Cl)(Cl)Cl)cc1 (stereo not drawn) [XI, α-trichloromethyl-p-ethoxybenzyl-p-methylaniline] | 0.085
